Measurements reported in patent US10279082B2, “Implant with an bioactive coating and method for providing the same” (Biomet Deutschland GmbH, priority 2015, dated 2019).

Assays:
[1] = Wiping test for adherence of the coating (glass substrate, polyester cloth); type: physicochemical; conditions: fosfomycin-Ca about 430 μg/cm^2, rifampicin about 60 μg/cm^2, wiped with polyester cloth
Source text: A substrate, here a glass substrate, was coated at first with a fosfomycin-Ca monohydrate suspension. Subsequently, a part of the glass substrate coated with fosfomycin-Ca was partially coated with rifampicin.
The completely coated substrate was then wiped using a polyester cloth.

[2] = test system: intracellular staphylococci; conditions: local administration of a pharmaceutical composition comprising rifampin; cited from earlier work

adherence of coating after wiping [1] | Structure (SMILES) | elimination of intracellular staphylococci [2]
largely removed | C[C@@H]1O[C@@H]1P(=O)([O-])[O-].O.[Ca+2] [fosfomycin-Ca, fosfomycin-calcium-monohydrate] | 
 | CO[C@H]1/C=C/O[C@@]2(C)Oc3c(C)c(O)c4c(O)c(c(/C=N/N5CCN(C)CC5)c(O)c4c3C2=O)NC(=O)/C(C)=C\C=C\[C@H](C)[C@H](O)[C@@H](C)[C@@H](O)[C@@H](C)[C@H](OC(C)=O)[C@@H]1C [rifampin] | reduced within three days
